Article PMC4128046, “Effect of a toggle switch mutation in TM6 of the human adenosine A3 receptor on Gi protein-dependent signalling and Gi-independent receptor internalization” (British Journal of Pharmacology, 2014)

Key:
Type in all cases: cell-based
A3 W243F-YFP [1] = biological target: T1, A3 W243F-YFP (Homo sapiens, UniProt P0DMS8, W243F); assay: Confocal imaging of receptor internalization and membrane YFP fluorescence, A3 W243F-YFP; details: A3 W243F-YFP cells, 10 μM agonist
T1 construct: Full length A3 W243F-YFP was excised and subcloned into a native pcDNA3.1 vector; expressed in transfected cells
T1 sequence (P0DMS8 1-318 W243F): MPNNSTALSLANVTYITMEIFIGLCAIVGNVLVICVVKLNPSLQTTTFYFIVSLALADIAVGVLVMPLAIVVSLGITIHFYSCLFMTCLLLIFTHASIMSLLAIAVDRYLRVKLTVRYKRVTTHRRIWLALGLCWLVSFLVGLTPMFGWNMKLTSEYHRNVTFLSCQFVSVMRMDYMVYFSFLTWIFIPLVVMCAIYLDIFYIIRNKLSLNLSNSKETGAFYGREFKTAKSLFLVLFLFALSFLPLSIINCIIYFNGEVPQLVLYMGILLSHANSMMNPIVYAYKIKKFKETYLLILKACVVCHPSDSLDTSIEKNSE
Experimental: Live-cell BiFC imaging was performed on A3-vYc/β-arrestin2-vYnL and A3 W243F-vYc/β-arrestin2-vYnL cells grown in Nunc Labtek 8-well plates, and images obtained using a Zeiss 710 confocal microscope (Carl Zeiss GmbH, Jena, Germany) fitted with a 63× plan-Apochromat NA1.4 Ph3 oil-immersion objective. Live-cell imaging analysis was performed on A3-YFP or A3 W243F-YFP CRE-SPAP cells and transiently expressed SNAP-A3 or SNAP-A3 W243F grown in Nunc Labtek 8-well plates, and images obtained using a Zeiss LSM5 Exciter confocal microscope (Carl Zeiss GmbH) fitted with a 63× plan-Apochromat NA1.4 DIC oil-immersion objective. For both YFP, BiFC and BG-AF488 label, a 488 nm argon laser was used to excite the fluorophore and emission was detected using a BP505-530 filter. Cells expressing the SNAP-tagged receptors were labelled with 1 μM SNAP-surface BG-AF488 (New England Biolabs) in DMEM/F12 medium for 30 min at 37°C/5% CO2. Before all imaging experiments, normal growth medium or medium containing BG-AF488 was removed and cells were washed twice in HEPES-buffered saline solution (HBSS; 25 mM HEPES, 10 mM glucose, 146 mM NaCl, 5 mM KCl, 1 mM MgSO4, 2 mM sodium pyruvate, 1.3 mM CaCl2) and fresh HBSS was added for analysis. […] Images of A3-YFP and A3 W243F-YFP cells were taken with same pinhole diameter, laser power, gain and offset to allow comparison of YFP fluorescence. To obtain fluorescence intensity values, a region of interest was drawn around the plasma membrane of 10 cells per image in Zeiss AIM 4.2 software (Carl Zeiss GmbH).

A3 W243F-YFP [2] = biological target: T1, A3 W243F-YFP; assay: [3H]-cAMP accumulation assay, A3 W243F-YFP; details: for inhibition of FSK-stimulated [3H]-cAMP accumulation after 5 h agonist stimulation / Emax: A3 W243F-YFP cells; for inhibition of FSK-stimulated [3H]-cAMP accumulation after 5 h agonist stimulation: 5 h stimulation, compared with 1 h; for Emax: read-out: Maximum response (% inhibition of 3 μM FSK), cAMP accumulation assay, 1 h stimulation
Experimental: On the day of analysis, cells were labelled with [^3H]-adenine (2 μCi·mL^−1) in a total volume of 600 μL per well for 2 h at 37°C/5% CO2 in normal growth medium. After 2 h, the [^3H]-adenine-containing medium was removed; cells washed once in serum-free medium and fresh serum-free medium, containing 10 μM rolipram, added. […] […] The assay was terminated by the addition of 50 μL concentrated HCl to each well. The levels of [^3H]-cAMP incorporated were measured by sequential Dowex and alumina chromatography and the efficiency of each column was determined by the recovery of [^14C]-cAMP as described by Donaldson et al. ([1988]).
A basal and FSK control was included in each separate concentration-response CRE-SPAP gene transcription assay and cAMP accumulation assay to allow the responses in each cell line to be expressed as an inhibition of FSK-stimulated SPAP production.

[3] = biological target: T2, human A3 receptor W243F mutant fused to YFP (A3 W243F-YFP) (Homo sapiens, UniProt P0DMS8, W243F); assay: Automated imaging of receptor internalization (granularity analysis), A3 W243F-YFP; details: A3 W243F-YFP cells
T2 construct: Full length A3 W243F-YFP was excised and subcloned into a native pcDNA3.1 vector; expressed in transfected cells
T2 sequence (P0DMS8 1-318 W243F): T1 sequence (P0DMS8 1-318 W243F)
Description: Immediately before experimentation, normal growth medium was replaced with serum-free medium. […] Medium was removed and cells were washed once in PBS. […] Images were obtained using an ImageXpress Ultra confocal plate reader (Molecular Devices, Sunnyvale, CA, USA). Four central images were obtained per well using a Plan Fluor 40x NA0.6 extra-long working distance objective. BiFC and YFP images were obtained by excitation with a 488 nm laser line with emission collected through a 525-550 nm band pass filter and H33342 images obtained by excitation with a 405 nm laser line and emission collected through a 447-460 nm band pass filter. Granularity analysis was performed on the resulting images using a granularity algorithm within MetaXpress software (Molecular Devices, Sunnyvale, CA, USA) and intensity above background was set for each individual experiment (Kilpatrick et al., [2010]). Areas of internalized receptors were identified by granularity analysis; granules were defined as having a diameter of between 7 and 15 μm and nuclei as having a diameter of between 6 and 9 μm, resulting in a measurement of the granule count per cell for each image. A basal and FSK control was included in each separate concentration-response CRE-SPAP gene transcription assay and cAMP accumulation assay to allow the responses in each cell line to be expressed as an inhibition of FSK-stimulated SPAP production. […] All data were fitted using non-linear regression in Prism 5 (GraphPad Software, San Diego, CA, USA). […] Statistical significance was determined by Student's unpaired t-test or by one-way ANOVA with Dunnett's post hoc analysis and P < 0.05 was considered statistically significant.

[4] = biological target: T3, A3 W243F-vYc/β-arrestin2-vYnL (Homo sapiens, UniProt P0DMS8, W243F); assay: BiFC of receptor with β-arrestin2 (automated imaging), A3 W243F-vYc; details: A3 W243F-vYc/β-arrestin2-vYnL cells; for Maximal BiFC (%): percentage of 10 μM NECA in the cell line
T3 construct: cDNA encoding the full length human A3 receptor; expressed in transfected cells; host or cells: CHO-K1 stably expressing β-arrestin2-vYnL, stably co-transfected with A3 W243F-vYc

A3-vYc/β-arrestin2-vYnL = biological target: T4, A3-vYc/β-arrestin2-vYnL (Homo sapiens, UniProt P0DMS8); assay: BiFC of receptor with β-arrestin2 (automated imaging), A3-vYc; details: A3-vYc/β-arrestin2-vYnL cells; for Maximal BiFC (%): percentage of 10 μM NECA in the cell line
T4 construct: cDNA encoding the full length human A3 receptor; expressed in transfected cells; host or cells: CHO-K1 stably expressing β-arrestin2-vYnL, stably co-transfected with A3-vYc

[5] = 60 min, read-out: pEC50 (BiFC with β-arrestin2-vYnL) (converted)

T4 sequence (P0DMS8 whole entry): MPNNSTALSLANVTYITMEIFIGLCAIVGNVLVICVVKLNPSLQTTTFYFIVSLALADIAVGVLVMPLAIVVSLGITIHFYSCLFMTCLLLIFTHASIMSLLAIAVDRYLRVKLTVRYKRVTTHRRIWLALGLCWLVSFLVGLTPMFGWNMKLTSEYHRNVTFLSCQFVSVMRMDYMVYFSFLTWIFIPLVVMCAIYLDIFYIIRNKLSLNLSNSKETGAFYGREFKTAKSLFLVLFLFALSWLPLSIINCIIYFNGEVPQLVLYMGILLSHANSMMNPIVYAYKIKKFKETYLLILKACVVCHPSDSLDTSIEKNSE
T4 sequence (P32121 whole entry partner): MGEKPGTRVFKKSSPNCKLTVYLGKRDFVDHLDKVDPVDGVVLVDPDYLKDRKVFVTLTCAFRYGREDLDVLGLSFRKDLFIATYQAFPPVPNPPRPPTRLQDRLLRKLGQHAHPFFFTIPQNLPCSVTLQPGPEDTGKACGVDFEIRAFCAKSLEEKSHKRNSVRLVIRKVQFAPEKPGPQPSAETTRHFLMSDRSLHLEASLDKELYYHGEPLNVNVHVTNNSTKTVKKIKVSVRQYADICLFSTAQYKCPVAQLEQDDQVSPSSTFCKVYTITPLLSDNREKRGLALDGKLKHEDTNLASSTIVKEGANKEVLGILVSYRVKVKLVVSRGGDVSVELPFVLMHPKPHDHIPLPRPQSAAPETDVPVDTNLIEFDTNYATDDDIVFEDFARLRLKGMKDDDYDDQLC
T3 sequence (P32121 whole entry partner, one chain of several): as the sequence (P32121 whole entry partner) above

| Structure (SMILES) | internalization of the receptor seen in confocal images (A3 W243F-YFP [1]) | inhibition of FSK-stimulated [3H]-cAMP accumulation after 5 h agonist stimulation (A3 W243F-YFP [2]) | Emax (A3 W243F-YFP [2]) [%] | Maximal internalization (%) ([3]; percentage of internalization with 10 μM NECA in the cell line) | Maximal BiFC (%) ([4]; 60 min) | Maximal BiFC (%) (A3-vYc/β-arrestin2-vYnL; 60 min) | reduction in membrane fluorescence (A3 W243F-YFP [1]) | EC50 (A3 W243F-YFP [2]; read-out: pEC50 (cAMP accumulation assay) (converted)) [nM] | effect of pretreatment on NECA-mediated internalization ([3]; 10 μM HEMADO 30 min before NECA 45 min) | accumulation of internalized receptor after 2 h stimulation ([3]; 10 μM agonist, 2 h) | % maximal internalization vs. 10 μM NECA at 2 h (BiFC) ([4]; 10 μM, 2 h) [%] | EC50 [4, 5] [nM] | % maximal internalization vs. 10 μM NECA at 2 h (BiFC) (A3-vYc/β-arrestin2-vYnL; 10 μM, 2 h) [%] | EC50 (A3-vYc/β-arrestin2-vYnL; [5]) [nM] |
| --- | --- | --- | --- | --- | --- | --- | --- | --- | --- | --- | --- | --- | --- | --- |
| CCNC(=O)[C@H]1O[C@@H](n2cnc3c(N)ncnc32)[C@H](O)[C@@H]1O [NECA, 5-(N-ethylcarboxamido)adenosine] | rapid internalization | reduced the maximal inhibition | 49.7 ± 2 | 100 | 100 | 100 | – | – | – | – | – | – | – | – |
| CCCCC#Cc1nc(NC)c2ncn([C@@H]3O[C@H](CO)[C@@H](O)[C@H]3O)c2n1 [HEMADO, 2-(1-hexynyl)-N-methyladenosine] | unable to stimulate internalization | very little inhibition | 43.2 ± 4.3 | – | 54.5 ± 6.1 | 72.2 ± 7.1 | no significant change | 9.55 | virtually abolished | no accumulation of internalized receptor could be detected | 58.0 ± 5.8 | 10.7 | 84.3 ± 8.2 | 6.46 |
